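Cultured in 96-well plates, cells were exposed to test compound for 48 hours across five concentrations. The concentration for 50% growth inhibition is given as GI50. The concentration for full growth arrest is given as TGI.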
Assays:
Assay in all cases: DTP human tumour cell line panel, 48 h
[1] = system: UACC-257 melanoma
[2] = system: DU-145 prostate
[3] = system: HOP-92 NSCLC
[4] = system: NCI-H522 lung
[5] = system: OVCAR-4 ovarian
[6] = system: SNB-75 CNS
[7] = system: IGROV1 ovarian
[8] = system: CAKI-1 renal
[9] = system: NCI/ADR-RES ovarian
[10] = system: PC-3 prostate

SMILES	TGI [1] [µM]	TGI [2] [µM]	TGI [3] [µM]	TGI [4] [µM]	TGI [5] [µM]	TGI [6] [µM]	TGI [7] [µM]	TGI [8] [µM]	TGI [9] [µM]	GI50 [1] [µM]	GI50 [3] [µM]	GI50 [4] [µM]	GI50 [5] [µM]	GI50 [6] [µM]	GI50 [10] [µM]	TGI [10] [µM]	GI50 [7] [µM]	GI50 [9] [µM]	GI50 [2] [µM]	GI50 [8] [µM]
COc1cc(OC)cc(-c2cc(=O)c3c(OC)c(OC)c(OC)c(OC)c3o2)c1	> 100	> 100	90.8	51.1	> 100	> 100	> 100	> 100	> 100											
CCN1CCN(c2nc(C)cc(N(CCNc3ccnc4cc(Cl)ccc34)Cc3ccc4c(c3)OCO4)n2)CC1	3.6		2.67	4.06	11.4	2.9	7.78		10.8	1.83	1.17	1.95	2.58	1.35	3.22	13.4	2.36	2.82		
CC(C)=Cc1cc(C(=O)Nc2ccc(Cl)c(Cl)c2)nc(N)n1	> 100		> 100		> 100	> 100	> 100	> 100												
C=C(Br)C(C)(Br)CCC(Br)C(C)(C)Cl (centres undefined)	37.4	43.1	30.2	20.4	34.4	33.9	18.3		54.2							36.3				
O=S(=O)(CCn1c(Sc2ccccc2)c(Sc2ccccc2)c2ccccc21)c1ccccc1		> 100		> 100	> 100	> 100	> 100	> 100	> 100							> 100				
CCCCCCCC(=O)SCC/C=C/[C@@H]1CC(=O)NCc2cc(ccn2)C2=N[C@@](C)(CS2)C(=O)N[C@@H](C(C)C)C(=O)O1		> 33.3	0.214	0.204	> 33.3	> 33.3	0.132	0.665	> 33.3		0.0268	0.00721	0.0535	0.0079	0.0124	> 33.3	0.00956	0.241	0.0138	0.104
O=S1(=O)OCCOS(=O)(=O)C1Br	> 100		> 100	> 100	> 100	> 100	> 100	> 100												
CC(=O)/C(=C\c1cccc([N+](=O)[O-])c1)C(=O)Nc1ccccc1C	> 100		> 100	> 100	> 100		> 100	> 100												
CCOC(=O)NC(=O)c1cn(CCCO)c(=O)[nH]c1=O	> 100		> 100		> 100	> 100	> 100	> 100												
CCCCCCCCC/C=C1\CCC(CN2CCOCC2)C1=O (centres undefined)	10.7	17.5	7.4	6.64	12	16	14.8	6.38								4.25				
COc1ccc(-c2nnc(COc3ccc(NC(=O)Nc4cc(C(F)(F)F)cc(C(F)(F)F)c4)cc3F)o2)cc1	5.51	4.84	4.58	5.35	8.53	6.37	10.9		5.16	2.08	1.5	2.15	2.29	2.02	1	4.34	2.95	1.91	2.15	
[Cl-].[La+3].[O-]/N=C(\c1ccccc1)c1ccccn1.[O-]/N=C(\c1ccccc1)c1ccccn1.[O-]/N=C(\c1ccccc1)c1ccccn1	> 100			> 100		82	> 100	> 91.2		41.1		44.5		27.8			51.5			48.4
Clc1ccc(C(c2ccc(Cl)cc2)c2ccccn2)cc1	37.9		30.1	48.6	70.2	> 100	> 100	56.8												
C#CC1(O)CCC2C3CCc4cc(Oc5nc(F)nc(-c6c7ccccc7c7sc8ccccc8n67)n5)ccc4C3CC[C@@]21C (some centres undefined)	> 100		> 100	43.7	> 100	89.3	> 100	> 100												
Cc1cc(-c2ccc3nc(C4CCOCC4)n(CCOC(F)(F)F)c3c2)cn(C)c1=O			36.6	9.31		5.97	6.91				0.182	0.244			1.04			0.918		
Cc1ccc(NC(=O)c2cc3cc(N=Nc4ccccc4C(=O)O)ccc3oc2=O)cc1	59.4			> 100		> 100	> 100													
CCCCCCN(CCCCCC)C(=O)Cc1c2n(c3ccccc13)Cc1ccccc1-2	> 100		79.7	> 100	> 100	> 100		> 100												
CN(C)c1ccc(/C=C(\NC(=O)c2ccccc2)c2nc3ncncc3[nH]2)cc1			> 100	> 100	> 100		> 100	> 100												
COc1cc(C2c3cc4c(cc3OC(C)(O)C2C)OCO4)cc(OC)c1OC (centres undefined)	> 100	> 100		1.19			76.2	> 100	> 100							> 100				
COC(OC)C(C)CC(=O)N(C)C (centres undefined)			> 100		> 100	> 100	> 100													
C[Si](C)(C)C1(Sc2ccccc2)SCCCS1	> 100		> 100	68.6	> 100	> 100	> 100	> 100												
C=C1C(=O)O[C@H]2[C@H]1CC/C(COC(=O)c1c[nH]c3ccccc13)=C\CC[C@@]1(C)O[C@@H]21	1.49	1.4	0.45	0.412	0.842	0.923			11	0.368	0.169	0.194	0.258	0.207	0.384	2.03		0.397	0.383	
O=C(/C=C\c1ccc(Cl)c(Cl)c1)c1ccc(Cl)cc1Cl	36.5			32.6	88.7	46.8	49.8	> 100												

Source: PubChem BioAssay (NCI)
